In paper PMC10004634 (PLOS ONE, 2023):

Tests used:
ABL1-nonphosphorylated = target: T1, ABL1-nonphosphorylated (Homo sapiens, UniProt P00519); assay: biochemical; parameters: KINOMEscan scanMAX competition binding, DNA-tagged kinases, qPCR read-out, percent control at 300 nM; details: read-out: Percent control / Acalabrutinib
T1 construct: nonphosphorylated

CDK9 = CDK9 (Homo sapiens, UniProt P50750); assay: biochemical; parameters: KINOMEscan scanMAX competition binding, DNA-tagged kinases, qPCR read-out, percent control at 300 nM; details: read-out: Percent control / Acalabrutinib
TGFBR1 = TGFBR1 (Homo sapiens, UniProt P36897); assay: biochemical; parameters: KINOMEscan scanMAX competition binding, DNA-tagged kinases, qPCR read-out, percent control at 300 nM; details: read-out: Percent control / Acalabrutinib
TGFBR1, sequence (P36897 whole entry): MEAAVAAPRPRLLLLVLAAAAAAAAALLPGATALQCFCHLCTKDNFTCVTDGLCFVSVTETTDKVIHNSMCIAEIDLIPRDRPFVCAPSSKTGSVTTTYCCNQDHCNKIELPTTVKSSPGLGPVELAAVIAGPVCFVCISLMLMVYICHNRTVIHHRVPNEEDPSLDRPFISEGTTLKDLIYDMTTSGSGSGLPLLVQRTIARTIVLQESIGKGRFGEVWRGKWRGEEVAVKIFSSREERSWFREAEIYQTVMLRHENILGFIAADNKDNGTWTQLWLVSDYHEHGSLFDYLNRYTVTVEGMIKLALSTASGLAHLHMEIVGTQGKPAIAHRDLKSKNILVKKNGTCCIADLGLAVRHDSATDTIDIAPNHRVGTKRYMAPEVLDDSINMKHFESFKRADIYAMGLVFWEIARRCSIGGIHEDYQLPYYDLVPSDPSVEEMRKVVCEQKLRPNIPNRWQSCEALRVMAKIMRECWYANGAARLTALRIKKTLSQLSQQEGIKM

MAP3K3 = MAP3K3 (Homo sapiens, UniProt Q99759); assay: biochemical; parameters: KINOMEscan scanMAX competition binding, DNA-tagged kinases, qPCR read-out, percent control at 300 nM; details: read-out: Percent control / Acalabrutinib
EPHA6 = EPHA6 (Homo sapiens, UniProt Q9UF33); assay: biochemical; parameters: KINOMEscan scanMAX competition binding, DNA-tagged kinases, qPCR read-out, percent control at 300 nM; details: read-out: Percent control / Acalabrutinib
EPHA6, sequence (Q9UF33 whole entry): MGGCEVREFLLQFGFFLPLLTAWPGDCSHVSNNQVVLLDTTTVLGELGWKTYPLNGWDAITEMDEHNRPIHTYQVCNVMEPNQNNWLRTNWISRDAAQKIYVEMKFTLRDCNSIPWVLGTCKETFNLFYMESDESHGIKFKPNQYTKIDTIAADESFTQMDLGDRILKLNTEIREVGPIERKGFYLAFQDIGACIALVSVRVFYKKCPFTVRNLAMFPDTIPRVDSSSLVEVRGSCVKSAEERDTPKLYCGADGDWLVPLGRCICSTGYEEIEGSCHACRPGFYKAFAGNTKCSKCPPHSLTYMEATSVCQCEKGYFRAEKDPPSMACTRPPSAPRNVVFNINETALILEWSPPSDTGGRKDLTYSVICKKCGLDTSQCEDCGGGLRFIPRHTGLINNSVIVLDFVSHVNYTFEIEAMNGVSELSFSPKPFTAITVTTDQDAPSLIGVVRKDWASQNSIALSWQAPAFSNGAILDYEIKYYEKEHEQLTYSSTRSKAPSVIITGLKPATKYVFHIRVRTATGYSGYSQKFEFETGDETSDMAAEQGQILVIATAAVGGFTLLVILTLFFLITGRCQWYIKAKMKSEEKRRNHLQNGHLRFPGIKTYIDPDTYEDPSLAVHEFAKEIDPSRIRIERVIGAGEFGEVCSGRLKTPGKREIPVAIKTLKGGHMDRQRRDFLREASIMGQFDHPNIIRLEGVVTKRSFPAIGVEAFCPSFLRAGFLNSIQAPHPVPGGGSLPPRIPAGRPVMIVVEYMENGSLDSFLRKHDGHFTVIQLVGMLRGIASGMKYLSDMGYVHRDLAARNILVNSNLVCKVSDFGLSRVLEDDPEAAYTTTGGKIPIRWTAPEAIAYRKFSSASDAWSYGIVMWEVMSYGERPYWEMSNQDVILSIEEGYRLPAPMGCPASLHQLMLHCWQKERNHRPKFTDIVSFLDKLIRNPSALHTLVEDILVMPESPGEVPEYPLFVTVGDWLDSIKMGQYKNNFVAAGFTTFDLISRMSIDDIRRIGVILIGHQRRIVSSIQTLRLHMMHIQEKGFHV

CDK3 = CDK3 (Homo sapiens, UniProt Q00526); assay: biochemical; parameters: KINOMEscan scanMAX competition binding, DNA-tagged kinases, qPCR read-out, percent control at 300 nM; details: read-out: Percent control / Acalabrutinib
BTK = BTK (Homo sapiens, UniProt Q06187); assay: In vivo pharmacodynamics: BTK phosphorylation in TMD8 xenograft tumors (flow cytometry); parameters: endogenous in cells; host or cells: TMD8 tumour cells from subcutaneous xenografts in SCID mice; details: TMD8, mouse, 1 h after final administration, read-out: BTK phosphorylation inhibition rate in tumor
BTK, sequence (Q06187 whole entry): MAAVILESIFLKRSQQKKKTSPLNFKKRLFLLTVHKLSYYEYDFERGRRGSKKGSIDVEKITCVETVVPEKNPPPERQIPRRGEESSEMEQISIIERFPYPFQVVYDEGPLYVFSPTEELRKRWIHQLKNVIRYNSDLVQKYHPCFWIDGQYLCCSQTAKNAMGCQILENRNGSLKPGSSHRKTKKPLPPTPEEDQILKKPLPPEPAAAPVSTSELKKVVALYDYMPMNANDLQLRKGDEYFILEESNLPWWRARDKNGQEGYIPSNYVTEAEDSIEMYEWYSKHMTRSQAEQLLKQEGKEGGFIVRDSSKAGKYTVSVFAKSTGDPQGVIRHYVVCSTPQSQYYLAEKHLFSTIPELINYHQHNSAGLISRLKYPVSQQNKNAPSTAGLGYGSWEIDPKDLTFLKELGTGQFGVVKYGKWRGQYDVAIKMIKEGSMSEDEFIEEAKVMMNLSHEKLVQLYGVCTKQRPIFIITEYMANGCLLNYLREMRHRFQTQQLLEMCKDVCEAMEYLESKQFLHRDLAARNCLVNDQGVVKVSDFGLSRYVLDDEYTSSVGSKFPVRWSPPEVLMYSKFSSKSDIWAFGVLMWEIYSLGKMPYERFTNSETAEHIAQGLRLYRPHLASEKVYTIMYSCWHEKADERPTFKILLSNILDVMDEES
Protocol: One hour after the final dosing, mice underwent laparotomy under isoflurane anesthesia and were sacrificed by exsanguination; tumors were collected. After measuring the wet weight, each tumor was placed on a 70-μm cell strainer (BD Falcon, Franklin Lakes, NJ, USA) placed in one well of a six-well plate on ice. After adding an amount of precooled culture medium, tumor cells were detached. The cell suspension was transferred to a tube and centrifuged for 8 min at 400 × g. Supernatant was excluded by aspiration, and cells were resuspended in culture medium. The tumor suspension was diluted with culture medium to a cell density of 1.0 × 10^6 cells/mL and pipetted into a 96-well plate. […] Cells were incubated for a further 10 min. Fix Buffer 1 (BD Biosciences, Franklin Lakes, NJ, USA) was added to each well, and the plate was centrifuged for 8 min at 400 × g at room temperature; the supernatant was removed by decantation. Each sample was washed twice with Perm Wash Buffer (BD Biosciences) before the addition of rabbit monoclonal p-BTK antibody (Tyr-223) (Novus Biologicals, #NB100-79907) diluted 500-fold with Perm Wash Buffer and 30-min incubation in the dark at room temperature. Cells underwent two rounds of Perm Wash buffer washes and centrifugation before the addition of the secondary antibody (100 μL Alexa Fluor 488 [Fab’] 2 fragments of goat anti-rabbit IgG [H+L]; Thermo Fisher Scientific) diluted 5,000-fold with Perm Wash buffer. After a 30-min incubation in the dark at room temperature, cells were washed once more and suspended with Stain Buffer (BD Biosciences). Cytomics FC500 MPL and data analysis software CXP Analysis (both from Beckman Coulter K.K, Shizuoka, Japan) were used for flow cytometry analysis. A gate containing the cell population of interest was created in a forward scatter and side scatter dot plot. […] The 7-AAD-positive cell rate (%) and the mean fluorescent intensity of BTK phosphorylation in cells in the relevant gate were measured. […]

RIOK2 = RIOK2 (Homo sapiens, UniProt Q9BVS4); assay: biochemical; parameters: KINOMEscan scanMAX competition binding, DNA-tagged kinases, qPCR read-out, percent control at 300 nM; details: read-out: Percent control / Zanubrutinib
RIOK2, sequence (Q9BVS4 whole entry): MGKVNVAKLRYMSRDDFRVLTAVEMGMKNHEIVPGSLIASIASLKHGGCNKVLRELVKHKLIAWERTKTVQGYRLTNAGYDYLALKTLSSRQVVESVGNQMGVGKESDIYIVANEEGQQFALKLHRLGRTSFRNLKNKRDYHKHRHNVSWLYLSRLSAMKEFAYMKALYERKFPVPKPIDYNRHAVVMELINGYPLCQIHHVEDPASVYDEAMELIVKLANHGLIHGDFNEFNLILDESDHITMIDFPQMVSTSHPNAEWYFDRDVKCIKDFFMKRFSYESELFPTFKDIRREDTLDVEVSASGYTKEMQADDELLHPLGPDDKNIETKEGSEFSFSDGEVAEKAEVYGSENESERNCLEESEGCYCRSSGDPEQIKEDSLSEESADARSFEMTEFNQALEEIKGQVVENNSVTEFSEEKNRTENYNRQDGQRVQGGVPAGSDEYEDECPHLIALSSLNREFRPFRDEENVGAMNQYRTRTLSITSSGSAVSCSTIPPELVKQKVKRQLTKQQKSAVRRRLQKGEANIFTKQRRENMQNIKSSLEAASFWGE

[1] = target: T2, ABL1(M351T)-phosphorylated (Homo sapiens, UniProt P00519, M351T); assay: biochemical; parameters: KINOMEscan scanMAX competition binding, DNA-tagged kinases, qPCR read-out, percent control at 300 nM; details: read-out: Percent control / Zanubrutinib
T2 construct: phosphorylated

MTOR = MTOR (Homo sapiens, UniProt P42345); assay: biochemical; parameters: KINOMEscan scanMAX competition binding, DNA-tagged kinases, qPCR read-out, percent control at 300 nM; details: read-out: Percent control / Zanubrutinib
SNARK = target: T3, SNARK (Homo sapiens, UniProt Q9H093); assay: biochemical; parameters: KINOMEscan scanMAX competition binding, DNA-tagged kinases, qPCR read-out, percent control at 300 nM; details: read-out: Percent control / Zanubrutinib
T3 construct: gene NUAK2

CDK5 = CDK5 (Homo sapiens, UniProt Q00535); assay: biochemical; parameters: KINOMEscan scanMAX competition binding, DNA-tagged kinases, qPCR read-out, percent control at 300 nM; details: read-out: Percent control / Zanubrutinib
PLK1 = PLK1 (Homo sapiens, UniProt P53350); assay: biochemical; parameters: KINOMEscan scanMAX competition binding, DNA-tagged kinases, qPCR read-out, percent control at 300 nM; details: read-out: Percent control / Zanubrutinib
PLK1, sequence (P53350 whole entry): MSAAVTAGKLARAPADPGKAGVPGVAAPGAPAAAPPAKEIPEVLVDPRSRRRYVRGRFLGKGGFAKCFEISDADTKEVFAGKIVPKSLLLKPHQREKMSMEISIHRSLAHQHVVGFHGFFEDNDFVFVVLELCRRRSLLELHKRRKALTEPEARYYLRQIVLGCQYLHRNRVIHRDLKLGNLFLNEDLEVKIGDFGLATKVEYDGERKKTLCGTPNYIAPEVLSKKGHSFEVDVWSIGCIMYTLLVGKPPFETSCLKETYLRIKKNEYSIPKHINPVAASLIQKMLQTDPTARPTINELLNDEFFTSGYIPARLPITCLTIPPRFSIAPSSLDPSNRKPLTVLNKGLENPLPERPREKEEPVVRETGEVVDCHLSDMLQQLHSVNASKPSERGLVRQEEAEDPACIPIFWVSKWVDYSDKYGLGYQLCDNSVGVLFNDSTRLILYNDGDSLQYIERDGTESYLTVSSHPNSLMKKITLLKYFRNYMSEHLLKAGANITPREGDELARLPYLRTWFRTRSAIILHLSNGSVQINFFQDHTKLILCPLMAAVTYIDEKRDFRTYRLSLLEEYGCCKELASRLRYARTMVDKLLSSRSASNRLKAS

CDKL5 = CDKL5 (Homo sapiens, UniProt O76039); assay: biochemical; parameters: KINOMEscan scanMAX competition binding, DNA-tagged kinases, qPCR read-out, percent control at 300 nM; details: read-out: Percent control / Zanubrutinib
CDKL5, sequence (O76039 whole entry): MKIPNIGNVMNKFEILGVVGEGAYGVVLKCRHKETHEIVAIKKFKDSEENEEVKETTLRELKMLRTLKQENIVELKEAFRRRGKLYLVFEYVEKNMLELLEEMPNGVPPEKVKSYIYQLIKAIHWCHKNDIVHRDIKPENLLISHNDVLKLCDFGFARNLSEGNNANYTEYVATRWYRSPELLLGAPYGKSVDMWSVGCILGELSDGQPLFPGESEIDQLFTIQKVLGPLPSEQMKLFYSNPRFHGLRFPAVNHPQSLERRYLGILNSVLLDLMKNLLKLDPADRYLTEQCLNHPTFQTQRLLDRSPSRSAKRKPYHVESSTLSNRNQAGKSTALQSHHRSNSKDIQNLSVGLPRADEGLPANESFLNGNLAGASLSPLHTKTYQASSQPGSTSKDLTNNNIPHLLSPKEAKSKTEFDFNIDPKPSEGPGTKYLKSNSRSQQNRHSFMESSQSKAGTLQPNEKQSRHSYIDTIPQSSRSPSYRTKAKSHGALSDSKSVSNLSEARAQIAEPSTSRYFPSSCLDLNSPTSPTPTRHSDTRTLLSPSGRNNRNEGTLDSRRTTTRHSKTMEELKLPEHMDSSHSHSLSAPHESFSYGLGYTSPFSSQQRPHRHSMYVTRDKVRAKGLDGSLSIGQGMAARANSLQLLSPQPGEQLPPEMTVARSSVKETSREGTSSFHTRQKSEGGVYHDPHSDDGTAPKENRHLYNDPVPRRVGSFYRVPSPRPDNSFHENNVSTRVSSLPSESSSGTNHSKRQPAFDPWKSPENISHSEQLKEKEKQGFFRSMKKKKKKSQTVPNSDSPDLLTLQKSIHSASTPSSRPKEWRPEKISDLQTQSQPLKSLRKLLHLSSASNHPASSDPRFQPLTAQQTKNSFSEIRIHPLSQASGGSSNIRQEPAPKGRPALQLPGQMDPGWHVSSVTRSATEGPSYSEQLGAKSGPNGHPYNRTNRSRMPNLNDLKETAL

TNK1 = TNK1 (Homo sapiens, UniProt Q13470); assay: biochemical; parameters: KINOMEscan scanMAX competition binding, DNA-tagged kinases, qPCR read-out, percent control at 300 nM; details: read-out: Percent control / Zanubrutinib
GRK1 = GRK1 (Homo sapiens, UniProt Q15835); assay: biochemical; parameters: KINOMEscan scanMAX competition binding, DNA-tagged kinases, qPCR read-out, percent control at 300 nM; details: read-out: Percent control / Zanubrutinib
GRK1, sequence (Q15835 whole entry): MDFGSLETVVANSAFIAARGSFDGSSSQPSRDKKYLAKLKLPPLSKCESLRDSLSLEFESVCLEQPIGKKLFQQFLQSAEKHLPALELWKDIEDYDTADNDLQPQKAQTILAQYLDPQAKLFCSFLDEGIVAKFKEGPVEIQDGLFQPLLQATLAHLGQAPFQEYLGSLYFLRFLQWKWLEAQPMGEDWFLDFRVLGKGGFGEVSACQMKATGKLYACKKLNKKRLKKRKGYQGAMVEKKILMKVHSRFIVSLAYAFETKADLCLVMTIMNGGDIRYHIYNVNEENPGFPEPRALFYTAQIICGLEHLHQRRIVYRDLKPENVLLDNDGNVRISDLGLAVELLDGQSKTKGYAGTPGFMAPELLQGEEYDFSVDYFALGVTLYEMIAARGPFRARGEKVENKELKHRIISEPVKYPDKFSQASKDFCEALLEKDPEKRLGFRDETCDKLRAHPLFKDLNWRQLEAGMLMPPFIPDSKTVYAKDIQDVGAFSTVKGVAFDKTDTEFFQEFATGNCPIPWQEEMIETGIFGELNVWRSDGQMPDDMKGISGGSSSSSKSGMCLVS

Q: What does the source list for `CC#CC(=O)N1CCC[C@H]1c1nc(-c2ccc(C(=O)Nc3ccccn3)cc2)c2c(N)nccn12` [Acalabrutinib]?
A: remaining binding at 0.3 µM (ABL1-nonphosphorylated): 87%; remaining binding at 0.3 µM (CDK9): 94%; remaining binding at 0.3 µM (TGFBR1): 96%; remaining binding at 0.3 µM (MAP3K3): 86%; remaining binding at 0.3 µM (EPHA6): 93%; remaining binding at 0.3 µM (CDK3): 88%

Q: How did the inhibition at 1 mg/kg (BTK; 1 mg/kg BID 21 days) turn out when `CC#CC(=O)N1CC[C@@H](n2c(=O)n(-c3ccc(Oc4ccccc4)cc3)c3c(N)ncnc32)C1` [Tirabrutinib] was run?
A: 64%

Q: And the inhibition at 3 mg/kg (BTK; 3 mg/kg BID 21 days)?
A: 79.2%

Q: And the inhibition at 10 mg/kg (BTK; 10 mg/kg BID 21 days)?
A: 85.4%

Q: `C=CC(=O)N1CCC([C@@H]2CCNc3c(C(N)=O)c(-c4ccc(Oc5ccccc5)cc4)nn32)CC1` [Zanubrutinib] was tested. Which remaining binding at 0.3 µM (RIOK2) did it give?
A: 94%

Q: What about the remaining binding at 0.3 µM [1] of the same compound?
A: 83%

Q: What about the remaining binding at 0.3 µM (MTOR) of the same compound?
A: 88%

Q: What about the remaining binding at 0.3 µM (SNARK) of the same compound?
A: 97%

Q: What about the remaining binding at 0.3 µM (CDK5) of the same compound?
A: 98%

Q: What about the remaining binding at 0.3 µM (PLK1) of the same compound?
A: 100%

Q: What about the remaining binding at 0.3 µM (CDKL5) of the same compound?
A: 100%

Q: What about the remaining binding at 0.3 µM (TNK1) of the same compound?
A: 93%

Q: What about the remaining binding at 0.3 µM (GRK1) of the same compound?
A: 100%
